# Measured values published in ChEMBL document CHEMBL2406975, “β-Secretase Inhibitors for the Treatment of Alzheimer's Disease and Down's Syndrome” (ACS Med Chem Lett, 2013).
# pIC50: −log10 of the molar value.
# Target: Beta-secretase 1 (Homo sapiens, UniProt P56817)
# Test: Inhibition of BACE1 in human SH-SY5Y cells assessed as release of sAPPbeta after 17 hrs
# Assay type: cell-based
# Sequence of Beta-secretase 1 (P56817 whole entry): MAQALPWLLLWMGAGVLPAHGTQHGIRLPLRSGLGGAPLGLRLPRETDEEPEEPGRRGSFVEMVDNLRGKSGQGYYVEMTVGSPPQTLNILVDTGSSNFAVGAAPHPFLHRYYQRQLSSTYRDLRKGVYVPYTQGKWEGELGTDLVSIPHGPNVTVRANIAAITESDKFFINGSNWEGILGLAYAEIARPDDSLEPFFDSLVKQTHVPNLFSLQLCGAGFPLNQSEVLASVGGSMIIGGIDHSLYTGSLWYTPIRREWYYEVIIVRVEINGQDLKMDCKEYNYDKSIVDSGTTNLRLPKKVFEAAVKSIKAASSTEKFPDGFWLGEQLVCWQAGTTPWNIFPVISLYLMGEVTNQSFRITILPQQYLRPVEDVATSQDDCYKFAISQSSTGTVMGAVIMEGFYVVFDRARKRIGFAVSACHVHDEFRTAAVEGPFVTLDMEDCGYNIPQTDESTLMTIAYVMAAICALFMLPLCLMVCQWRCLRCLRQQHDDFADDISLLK
row,pIC50,Structure (SMILES)
1,6.77,CC1(C)Cc2ccc(-c3cncnc3)cc2C12C=C(F)C(N)=N2 (centres undefined)
2,8.96,CC#Cc1cncc(-c2ccc3c(c2)C2(C=C(F)C(N)=N2)[C@]2(CC[C@@H](OC)CC2)C3)c1 (some centres undefined)
3,10.51,CC#Cc1cncc(-c2ccc3c(c2)C2(C=C(F)C(N)=N2)[C@]2(CC[C@H](OC)CC2)C3)c1 (some centres undefined)
4,8.96,CO[C@H]1CC[C@]2(CC1)Cc1ccc(-c3cncnc3)cc1C21C=C(F)C(N)=N1 (some centres undefined)
